Four molecules from ChEMBL document CHEMBL4715747 (Eur J Med Chem, 2016) can be followed below.

What is called IC50 is the concentration that inhibits the measured activity by half.

One series has as its target T1, Aminopeptidase N (Sus scrofa, UniProt P15145).
T1 sequence (P15145 whole entry): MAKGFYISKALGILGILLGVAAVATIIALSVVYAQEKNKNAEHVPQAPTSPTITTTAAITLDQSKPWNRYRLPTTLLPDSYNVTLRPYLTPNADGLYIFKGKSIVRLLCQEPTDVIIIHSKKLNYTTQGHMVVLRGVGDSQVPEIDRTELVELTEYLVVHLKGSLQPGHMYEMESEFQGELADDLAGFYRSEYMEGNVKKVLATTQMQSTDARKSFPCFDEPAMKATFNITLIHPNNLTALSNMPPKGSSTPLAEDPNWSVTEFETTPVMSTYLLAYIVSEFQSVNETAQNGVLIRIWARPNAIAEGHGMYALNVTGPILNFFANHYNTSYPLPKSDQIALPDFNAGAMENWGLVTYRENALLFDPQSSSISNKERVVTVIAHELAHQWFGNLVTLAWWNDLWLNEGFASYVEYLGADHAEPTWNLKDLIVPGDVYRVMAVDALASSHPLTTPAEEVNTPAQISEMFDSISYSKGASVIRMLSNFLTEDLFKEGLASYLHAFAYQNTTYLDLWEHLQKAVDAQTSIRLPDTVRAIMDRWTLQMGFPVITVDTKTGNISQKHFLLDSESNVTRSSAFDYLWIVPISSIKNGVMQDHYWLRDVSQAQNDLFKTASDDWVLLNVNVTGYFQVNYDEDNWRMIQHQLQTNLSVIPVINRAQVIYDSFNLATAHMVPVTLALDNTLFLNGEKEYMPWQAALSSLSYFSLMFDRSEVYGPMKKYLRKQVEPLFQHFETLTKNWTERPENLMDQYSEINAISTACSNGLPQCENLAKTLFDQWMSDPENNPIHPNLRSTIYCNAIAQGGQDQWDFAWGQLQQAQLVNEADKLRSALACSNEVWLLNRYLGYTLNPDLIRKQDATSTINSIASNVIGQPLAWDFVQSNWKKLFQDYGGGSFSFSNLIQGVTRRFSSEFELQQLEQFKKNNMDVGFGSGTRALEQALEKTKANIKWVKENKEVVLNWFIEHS
Put plainly: Inhibition of porcine kidney microsomal CD13 using L-leucine-p-nitroanilide as substrate preincubated for 5 mins followed by substrate addition and measured after 30 mins by microplate reader analysis. Format: microsomes, Microsome.

Another series deals with MCF7. Put plainly: Antiproliferative activity against human MCF7 cells after 48 hrs by MTT assay. To be noted: MCF7, 48 h.
The next series deals with HeLa. As to the kind of experiment: Antiproliferative activity against human HeLa cells after 48 hrs by MTT assay.
Series [1] can be described thus: Antiproliferative activity against human ES2 cells after 48 hrs by MTT assay. To be noted: ES-2, 48 h. For orientation: Formazan colour is commonly taken as a measure of viable cells.
The nature of series [2]: Antiproliferative activity against human 3AO cells after 48 hrs by MTT assay.
The next series concerns KG-1. Put plainly: Antiproliferative activity against human KG1 cells after 48 hrs by MTT assay. To be noted: KG-1, 48 h.
The subject of a further series is HCT-116. As to the kind of experiment: Antiproliferative activity against human HCT-116 cells after 48 hrs by MTT assay. To be noted: HCT-116, 48 h.
Another series has as its system A549. Put plainly: Antiproliferative activity against human A549 cells after 48 hrs by MTT assay. To be noted: A549, 48 h.
A short description of series [3]: Antiproliferative activity against human H7402 cells after 48 hrs by MTT assay. To be noted: H7402, 48 h.
The next series concerns HepG2. As to the kind of experiment: Antiproliferative activity against human HepG2 cells after 48 hrs by MTT assay. To be noted: HepG2, 48 h.
The subject of series [4] is PLC-PRF-5. As to the kind of experiment: Antiproliferative activity against human PLC-PRF-5 cells after 48 hrs by MTT assay. To be noted: PLC-PRF-5, 48 h.
Series [5] relates to HUVEC. As to the kind of experiment: Anti-angiogenesis activity in HUVEC assessed as inhibition of capillary like tube formation incubated for 6 hrs by matrigel based capillary tube formation assay. It counts as functional, cell-based. To be noted: Homo sapiens, dose 10-30 µM.
The subject of series [6] is HUVEC. As to the kind of experiment: Anti-angiogenesis activity in HUVEC assessed as inhibition of capillary like tube formation at 30 uM incubated for 6 hrs by matrigel based capillary tube formation assay. More on the design: scale not given: the % may be the effect or the level left. It counts as functional, Homo sapiens.
A further series concerns Aorta. As to the kind of experiment: Anti-angiogenesis activity in Wistar rat thoracic aortic rings assessed as decrease in number of microvessels sprouting at 20 ug/ml treated every other day for 9 days. It counts as functional, tissue-based. To be noted: dose 20.0 µg/ml, time 9.0 day.
The subject of series [7] is H22. Put plainly: Antitumor activity against mouse H22 cells transplanted in iv dosed Kunming mouse assessed as tumor growth inhibition administered 5 days per week for 2 weeks. Format: functional, organism-based. To be noted: dose 20-80 mg/kg.
In series [8] the test system is H22. Put plainly: Antitumor activity against mouse H22 cells transplanted in Kunming mouse assessed as tumor growth inhibition at 80 mg/kg/day, iv administered 5 days per week for 2 weeks relative to treated combination of 5-FU and Ube. Format: functional, organism-based.
Series [9] has as its system H22. Put plainly: Antitumor activity against mouse H22 cells transplanted in orally dosed Kunming mouse assessed as tumor growth inhibition administered 5 days per week for 2 weeks. It counts as functional, organism-based. To be noted: dose 40-80 mg/kg.
Series [10] has as its system H22. Put plainly: Antitumor activity against mouse H22 cells transplanted in Kunming mouse assessed as tumor growth inhibition at 80 mg/kg/day, po administered 5 days per week for 2 weeks. Format: functional, organism-based.
The nature of series [11]: Toxicity in Kunming mouse transplanted with mouse H22 cells assessed as change in body weight at 40 to 80 mg/kg/day, po administered 5 days per week for 2 weeks. It counts as organism-based. To be noted: in vivo, 336 h, dose 40-80 mg/kg/day.
Series [12] can be described thus: Toxicity in Kunming mouse transplanted with mouse H22 cells assessed as side effects at 40 to 80 mg/kg/day, po administered 5 days per week for 2 weeks. Format: organism-based. To be noted: in vivo, 336 h, dose 40-80 mg/kg/day.
The test system of series [13] is PLC-PRF-5. Put plainly: Antitumor activity against human PLC-PRF-5 cells xenografted in iv dosed BALB/c athymic nude mouse assessed as tumor growth inhibition. To be noted: dose 20-80 mg/kg. Format: functional, organism-based. On the technique in general: A xenograft is tissue or cells of one species grown in another, often human tumour cells in immunodeficient mice.

Series [14] has as its system PLC-PRF-5. As to the kind of experiment: Antitumor activity against human PLC-PRF-5 cells xenografted in orally dosed NOD/SCID mouse assessed as tumor growth inhibition. Format: functional, organism-based. To be noted: dose 100-120 mg/kg.
The nature of series [15]: Toxicity in BALB/c athymic nude mouse xenografted with human PLC-PRF-5 cells assessed as change in body weight at 20 to 80 mg/kg, iv. Format: organism-based. To be noted: in vivo, dose 20-80 mg/kg.
The nature of series [16]: Toxicity in NOD/SCID mouse xenografted with human PLC-PRF-5 cells assessed as change in body weight at 100 to 120 mg/kg, po. Format: organism-based. To be noted: in vivo, dose 100-120 mg/kg.
Series [17] deals with H22. Put plainly: Antimetastatic activity against mouse H22 cells inoculated in orally dosed Kunming mouse assessed as reduction in lung metastatic nodes administered for 5 days starting from day 11 post inoculation and 2 days of withdrawal measured after 24 days. It counts as functional, organism-based. To be noted: dose 80-100 mg/kg, time 5.0 day.
Series [18] has as its system H22. Put plainly: Antitumor activity against 5-FU-resistant mouse H22 cells transplanted in Kunming mouse assessed as tumor growth inhibition at 200 uM/kg/day, po administered for 14 days. It counts as functional, organism-based. To be noted: time 14.0 day.
Series [19] can be described thus: Toxicity in Kunming mouse transplanted with 5-FU-resistant mouse H22 cells assessed as change in body weight at 200 uM/kg/day, po administered daily for 14 days. It counts as organism-based. To be noted: in vivo, 336 h, time 14 day.
Series [20] can be described thus: Prodrug conversion in human plasma assessed as release of active metabolites 5-FU and Ube measured within 30 mins at 37 degC. Format: ADME, cell-free. To be noted: 0.5 h.
The next series concerns MDA-MB-231. Put plainly: cells. To be noted: Homo sapiens, MDA-MB-231, 48 h.
The next series has as its system HEL. Put plainly: cells. To be noted: Homo sapiens, 48 h.
The test system of the next series is PC-3. Put plainly: cells. To be noted: Homo sapiens, PC-3, 48 h.
Series [21] has as its system H22. As to the kind of experiment: Antitumor activity against mouse H22 cells transplanted in Kunming mouse assessed as tumor growth inhibition at 100 mg/kg/day, po administered 5 days per week for 2 weeks. Format: functional, organism-based.
Series [22] concerns H22. As to the kind of experiment: Antitumor activity against mouse H22 cells transplanted in Kunming mouse assessed as tumor growth inhibition at 20 mg/kg/day, ip administered 5 days per week for 2 weeks. It counts as functional, organism-based.

Activity calls are given as the source filed them. The calls are words filed in the database; no cut-off is given here.

Description for MDA-MB-231: Antiproliferative activity against human MDA-MB-231 cells after 48 hrs by MTT assay
Description for PC-3: Antiproliferative activity against human PC-3 cells after 48 hrs by MTT assay

Take `CC(C)C[C@H](NC(=O)[C@@H](O)[C@H](N)Cc1ccccc1)C(=O)OCn1cc(F)c(=O)[nH]c1=O.Cl`: the IC50 at Aminopeptidase N amounted to 6.98 µM; with MCF7, 19 µM; in the series with HeLa it was 7.27 µM; in series [1], 22.8 µM; in [2] it was 25.9 µM; in the series with KG-1, 30.9 µM. Also, the IC50 in the series with HCT-116 came to 14.7 µM; with A549, 5.68 µM; in [3], 11.5 µM; in the series with HepG2, 7.49 µM; in the series with PLC-PRF-5 [4], 17.5 µM; with MDA-MB-231 it was 10.5 µM. The IC50 in the series with HEL was found to be 9.18 µM; with PC-3 it was 24.3 µM. Further, the Activity result in the series with HUVEC [5] was “Dose-dependent effect”; in the series with HUVEC [6], 100%; with H22 [7], “Dose-dependent effect”; with H22 [9] it was “Dose-dependent effect”; in series [11], “Non-Toxic”; in series [12] it was “Non-Toxic”. Besides, the Activity result with PLC-PRF-5 [13] is “Dose-dependent effect”; in the series on PLC-PRF-5 [14], “Dose-dependent effect”; in [15] it was “Non-Toxic”; in series [16], “Non-Toxic”; in the series with H22 [17] it was “Dose-dependent effect”; in series [19], “Non-Toxic”. For the same molecule, the result in the series with Aorta, in the series with H22 [8], with H22 [10] and in the series on H22 [18] was Active. The Drug metabolism result in series [20] is “Metabolite_Detected”.
Consider `CC(C)C[C@H](NC(=O)[C@@H](O)[C@H](N)Cc1ccccc1)C(=O)O` [UBENIMEX], for which the IC50 in the series with MCF7 is over 500 µM; with HeLa it was over 500 µM; in series [1], over 500 µM; in series [2] it was over 500 µM; in the series on KG-1, over 500 µM; in the series with HCT-116 it was 315 µM. The IC50 in series [3] was over 500 µM; in the series on HepG2 it was over 500 µM; in the series with PLC-PRF-5 [4], over 500 µM; in the series on MDA-MB-231, over 500 µM; in the series on HEL, 417 µM. The result with HUVEC [6] (Homo sapiens) and in the series on Aorta was Active.
For the molecule `CCCCCOC(=O)Nc1nc(=O)n([C@@H]2O[C@H](C)[C@@H](O)[C@H]2O)cc1F`, in the series on H22 [21], the outcome was Active.
Consider `O=c1[nH]cc(F)c(=O)[nH]1` [FLUOROURACIL], for which the IC50 in the series on MCF7 is 71.5 µM; in the series with HeLa, 133 µM; in series [1], 93.5 µM; in [2] it was 60.8 µM; in the series with KG-1, 83 µM; in the series on HCT-116, 84.9 µM. Besides, the concentration for half-maximal inhibition (IC50) in series [3] was found to be 29 µM; in the series on HepG2, 13.5 µM; with PLC-PRF-5 [4], 38.4 µM; in the series on MDA-MB-231, 22.5 µM; with HEL, 32.3 µM; in the series with PC-3 it was 106 µM. In the series with H22 [22], the result was Active. Moreover, in the series with H22 [18], the outcome was inactive.
